From PMC4444576, “Prospective performance evaluation of selected common virtual screening tools. Case study: Cyclooxygenase (COX) 1 and 2” (European Journal of Medicinal Chemistry, 2015)
Read-outs that look alike come from different tables or passages of the source.

Experiments:
COX [1] = conditions: cited from earlier work; for Activity: data from the literature
[2] = biological target: T1, ram seminal vesicle COX-1 (Ovis aries, UniProt P05979); test: COX-1 inhibition assay (PGE2 EIA); type: biochemical; conditions: for inhibition at 20 µM: read-out: % inhibition at 20µM, COX-1; for inhibition at 20 µM / % inhibition at 20µM, COX-1: triplicates
T1 construct: ram seminal vesicle COX-1 (1 U) (Sigma–Aldrich); purchased Sigma–Aldrich; host or cells: ram seminal vesicle (tissue of origin)
T1 sequence (P05979 25-600): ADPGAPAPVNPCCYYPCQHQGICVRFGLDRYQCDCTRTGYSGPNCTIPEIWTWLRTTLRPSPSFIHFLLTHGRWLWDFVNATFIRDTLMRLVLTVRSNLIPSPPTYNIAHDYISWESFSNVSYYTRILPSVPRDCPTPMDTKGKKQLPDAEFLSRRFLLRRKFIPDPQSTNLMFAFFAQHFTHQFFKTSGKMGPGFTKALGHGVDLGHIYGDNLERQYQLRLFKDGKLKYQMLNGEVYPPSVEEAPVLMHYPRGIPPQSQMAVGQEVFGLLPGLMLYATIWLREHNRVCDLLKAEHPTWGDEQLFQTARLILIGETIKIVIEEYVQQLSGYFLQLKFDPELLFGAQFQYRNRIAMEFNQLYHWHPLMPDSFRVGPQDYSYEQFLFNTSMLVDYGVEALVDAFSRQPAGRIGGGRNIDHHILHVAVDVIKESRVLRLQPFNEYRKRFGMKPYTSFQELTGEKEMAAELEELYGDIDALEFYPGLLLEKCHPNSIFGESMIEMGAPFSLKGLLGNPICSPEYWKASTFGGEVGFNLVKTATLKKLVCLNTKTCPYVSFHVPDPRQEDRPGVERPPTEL

human recombinant COX-2 = biological target: T2, human recombinant COX-2 (Homo sapiens, UniProt P35354); test: COX-2 inhibition assay (PGE2 EIA); type: biochemical; conditions: for inhibition at 20 µM: read-out: % inhibition at 20µM, COX-2; for inhibition at 20 µM / % inhibition at 20µM, COX-2: triplicates
T2 construct: purchased Sigma–Aldrich
T2 sequence (P35354 18-604): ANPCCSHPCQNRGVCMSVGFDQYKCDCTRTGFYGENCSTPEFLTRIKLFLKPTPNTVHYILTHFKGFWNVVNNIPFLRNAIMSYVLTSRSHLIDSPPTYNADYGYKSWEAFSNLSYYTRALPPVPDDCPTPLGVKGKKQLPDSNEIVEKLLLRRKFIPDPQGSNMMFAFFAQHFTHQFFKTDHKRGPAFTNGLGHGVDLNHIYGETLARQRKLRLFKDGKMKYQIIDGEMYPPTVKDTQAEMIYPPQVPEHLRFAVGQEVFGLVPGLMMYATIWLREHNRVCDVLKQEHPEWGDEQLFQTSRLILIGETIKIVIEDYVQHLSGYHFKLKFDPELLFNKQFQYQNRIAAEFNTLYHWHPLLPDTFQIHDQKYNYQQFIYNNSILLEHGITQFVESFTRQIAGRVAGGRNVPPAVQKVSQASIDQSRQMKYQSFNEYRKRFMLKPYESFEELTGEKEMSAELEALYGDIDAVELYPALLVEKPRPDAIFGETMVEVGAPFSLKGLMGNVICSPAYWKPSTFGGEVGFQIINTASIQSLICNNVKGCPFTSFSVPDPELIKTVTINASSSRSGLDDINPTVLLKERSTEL

COX [3] = test: Biological testing for COX-inhibiting activity, overall outcome on both isoforms; type: biochemical; conditions: for Activity: biological testing of this study

Row | SMILES | inhibition at 20 µM [2] [%] | inhibition at 20 µM (human recombinant COX-2) [%] | Activity (COX [3]) | also measured
1 | CC(C(=O)O)c1ccc(N2Cc3ccccc3C2=O)cc1 (stereo not drawn) [Indoprofen] |  |  |  | Activity (COX [1]): Active [55]
2 | CC(C(=O)O)c1cccc(C(=O)c2ccccc2)c1 (stereo not drawn) [Ketoprofen] |  |  |  | Activity (COX [1]): Active [56]
3 | N[C@@H](Cc1cc(I)c(Oc2cc(I)c(O)c(I)c2)c(I)c1)C(=O)O [Levothyroxin] | 12.9 ± 10.3 | 14.9 ± 18.3 | Inactive | 
4 | Cc1ccc(Cl)c(Nc2ccccc2C(=O)O)c1Cl [Meclofenamic acid] |  |  |  | Activity (COX [1]): Active [57]
5 | Cc1cccc(Nc2ccccc2C(=O)O)c1C [Mefenamic acid] |  |  |  | Activity (COX [1]): Active [58]
6 | C#C[C@]1(O)CC[C@H]2[C@@H]3CCC4=C(CCC(=O)C4)[C@H]3CC[C@@]21C [Norethynodrel] | 21 ± 10.9 | -11.6 ± 32.2 | Inactive | 
7 | CC(=O)Oc1ccc(C2(c3ccc(OC(C)=O)cc3)C(=O)Nc3ccccc32)cc1 [Oxyphenisatin acetate] | -3.2 ± 27.9 | -1.8 ± 11.1 | Inactive | 
8 | CNC(=O)Oc1ccc(-c2ccccc2)cc1 [Paxamate (4), Paxamate] |  |  | Active | IC50 [2]: 17.1 ± 3.1 µM; IC50 (human recombinant COX-2): > 20 µM; COX isoform selectivity (COX [3]; COX-1 versus COX-2): COX-1 selective
9 | O=S(=O)(O)Oc1ccc(C(c2ccc(OS(=O)(=O)O)cc2)c2ccccn2)cc1 [Picosulfate sodium] | 8.3 ± 21 | -11 ± 29.4 | Inactive | 
10 | CC(C(=O)O)c1ccc(N2CC=CC2)c(Cl)c1 (stereo not drawn) [Pirprofen] |  |  |  | Activity (COX [1]): Active [59]
11 | COC(=O)c1ccccc1C(=O)c1ccc(OCCN2CCCCC2)cc1 [Pitofenone] | -4.7 ± 16.2 | 14.1 ± 18.4 | Inactive | 
12 | CNC(=C[N+](=O)[O-])NCCSCc1ccc(CN(C)C)o1 [Ranitidine] | -11 ± 9.6 | 12.7 ± 5.1 | Inactive | 
13 | CC(C)(Oc1ccc(Cl)cc1)C(=O)OCCCOC(=O)c1cccnc1 [Ronifibrate] |  |  | Inactive | % inhibition at 20µM, COX-1 [2]: 28.2 ± 11.6%; % inhibition at 20µM, COX-2 (human recombinant COX-2): 33.0 ± 5.7%
14 | O=C(O)c1cc(/N=N/c2ccc(S(=O)(=O)Nc3ccccn3)cc2)ccc1O [Sulfasalazin] |  |  |  | COX-inhibition (COX [1]; no IC50 available): Evidence for COX-inhibition
15 | O=S(O)CNc1ccc(S(=O)(=O)c2ccc(NCS(=O)O)cc2)cc1 [Sulfoxone] | -2.1 ± 16.4 | -0.7 ± 6.4 | Inactive | 
16 | NS(=O)(=O)c1ccc(N2CCCCS2(=O)=O)cc1 [Sulthiame] | 3.7 ± 9.3 | -0.9 ± 13.6 | Inactive | 
17 | Cc1ncc(C[n+]2csc(CCO)c2C)c(N)n1 [Thiamine monochloride] | 13.8 ± 15.6 | -3.2 ± 6.9 | Inactive | 
18 | CC(C(=O)O)c1ccc(C(=O)c2ccccc2)s1 (stereo not drawn) [Tiaprofenic acid] |  |  |  | Activity (COX [1]): Active [55]
19 | O=C(O)COc1ccc(C(=O)c2cccs2)c(Cl)c1Cl [Ticrynafen] | -6.2 ± 6.1 | 18.4 ± 6.1 | Inactive | 
20 | [Cl-].c1ccc(-c2nn(-c3ccccc3)[n+](-c3ccccc3)n2)cc1 [Triphenyltetrazol] |  |  | Inactive | % inhibition at 20µM, COX-1 [2]: 13.6 ± 14.4%; % inhibition at 20µM, COX-2 (human recombinant COX-2): 2.9 ± 7.3%
21 | COc1ccc(C(Cl)=C(c2ccc(OC)cc2)c2ccc(OC)cc2)cc1 [chlorotrianisene] |  |  |  | COX inhibition (COX [1]; identified by SEA): COX-inhibitor
22 | CC(=O)Nc1ccc(-c2ccccc2)cc1 [p-phenylacetanilide] |  |  | Inactive | % inhibition at 20µM, COX-1 [2]: 5.8 ± 18.3%; % inhibition at 20µM, COX-2 (human recombinant COX-2): -1.6 ± 8.3%
